Measured values from patent publication US20230322788A1, “IMIDAZOTRIAZINE AND PYRROLOPYRIMIDINE DERIVATIVES AS KRAS G12C INHIBITORS” (BeiGene, Ltd., priority 2020, published 2023).
pIC50: −log10 of the molar value.

These molecules were tested against KRAS (aa 1-169) G12C, C51S, C80L, C118S (Homo sapiens (Human), UniProt P01116, C118S/C51S/C80L/G12C) (assay: KRAS G12C SOS1-mediated nucleotide exchange / cRaf RBD binding FRET assay (Biochemical Functional Assay)). Conditions: GDP-loaded KRAS G12C pre-incubated with compound at 24° C. for 3 hrs; SOS1, GTPγS, GST-cRaf RBD; inhibition of nucleotide exchange.
KRAS (aa 1-169) G12C, C51S, C80L, C118S, sequence (P01116 other isoform, or with tags, fused parts or gaps G12C/C51S/C80L/C118S): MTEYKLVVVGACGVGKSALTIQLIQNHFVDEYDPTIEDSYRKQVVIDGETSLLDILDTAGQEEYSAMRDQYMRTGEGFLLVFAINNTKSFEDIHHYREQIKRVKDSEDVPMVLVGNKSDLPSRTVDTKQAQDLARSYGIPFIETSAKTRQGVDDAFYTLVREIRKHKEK
Method: The KRAS ([…]) G12C, C51S, C80L, C118S with a His-tag was expressed, purified and loaded with GDP in house. All protein and substrate solutions were prepared in assay buffer containing 25 mM HEPES pH7.5, 10 mM MgCl2, and 0.01% Triton X-100. Purified GDP-loaded KRAS (aa 1-169) G12C, C51S, C80L, C118S protein was pre-incubated with a serially diluted compound at 24° C. for 3 hrs. Purified SOS1 (aa 564-1049) protein, GTPYS (Sigma) and GST-cRaf RBD (aa 1-149) were then added to each well and incubated at 24° C. for additional 3 hrs. […] Following the incubation, Mab Anti-6HIS-Tb cryptate (Cisbio) and Mab Anti GST-XL665 (Cisbio) were added and further incubated at 24° C. for 3 hrs. The binding interaction between active GTPγS KRAS G12C and GST-cRaf RBD brings the Tb and XL665 into close proximity enabling an increased FRET signal (Ex337 nm, Em665 nm/620 nm). The inhibition percentage of nucleotide exchange reaction in presence of increasing concentrations of compounds was calculated based on the ratio of fluorescence at 665 nm to that at 620 nm detected on a BMG PHERAstar FSX instrument. The IC50 value of each compound was calculated from fitting the data to the four-parameter logistic model by Dotmatics.

Point of comparison: `C=CC(=O)N1CCN(c2nc(OC[C@@H]3CC(F)(F)CN3C)nn3c(Cc4cccc5ccccc45)cnc23)C[C@@H]1CC#N` [Compound A14, 2-((S)-1-acryloyl-4-(2-(((S)-4,4-difluoro-1-methylpyrrolidin-2-yl)methoxy)-7-(naphthalen-1-ylmethyl)imidazo[2,1-f][1,2,4]triazin-4-yl)piperazin-2-yl)acetonitrile], pIC50 6.30. Against it:
- C=CC(=O)N1CCN(c2nc(OC[C@@H]3CCCN3C)nn3c(Cc4cc(O)cc5ccccc45)cnc23)C[C@@H]1CC#N [Compound A5, 2-((S)-1-acryloyl-4-(7-((3-hydroxynaphthalen-1-yl)methyl)-2-(((S)-1-methylpyrrolidin-2-yl)methoxy)imidazo[2,1-f][1,2,4]triazin-4-yl)piperazin-2-yl)acetonitrile] — 1.24 log units higher, 7.54
- C=CC(=O)N1CCN(c2nc(OC[C@@H]3CCCN3C)nn3c(Cc4c(O)cccc4F)cnc23)C[C@@H]1CC#N [Compound A20, 2-((S)-1-acryloyl-4-(7-(2-fluoro-6-hydroxybenzyl)-2-(((S)-1-methylpyrrolidin-2-yl)methoxy)imidazo[2,1-f][1,2,4]triazin-4-yl)piperazin-2-yl)acetonitrile] — 1.42 log units higher, 7.72
- C=CC(=O)N1CCN(c2nc(OC[C@@H]3CCCN3C)nn3c(Cc4cccc5cccc(C)c45)cnc23)C[C@@H]1CC#N [Compound A7, 2-((S)-1-acryloyl-4-(7-((8-methylnaphthalen-1-yl)methyl)-2-(((S)-1-methylpyrrolidin-2-yl)methoxy)imidazo[2,1-f][1,2,4]triazin-4-yl)piperazin-2-yl)acetonitrile] — 1.02 log units higher, 7.32
- C=CC(=O)N1CCN(c2nc(OC[C@@H]3CCCN3C)nn3c(Cc4cccc5ccccc45)cnc23)C[C@@H]1CC#N [Compound A4, 2-((S)-1-acryloyl-4-(2-(((S)-1-methylpyrrolidin-2-yl)methoxy)-7-(naphthalen-1-ylmethyl)imidazo[2,1-f][1,2,4]triazin-4-yl)piperazin-2-yl)acetonitrile] — 1.03 log units higher, 7.33
- C=CC(=O)N1CCN(c2nc(OC[C@@H]3CCCN3C)nn3c(Cc4ccc(O)c5ccccc45)cnc23)C[C@@H]1CC#N [Compound A19, 2-((S)-1-acryloyl-4-(7-((4-hydroxynaphthalen-1-yl)methyl)-2-(((S)-1-methylpyrrolidin-2-yl)methoxy)imidazo[2,1-f][1,2,4]triazin-4-yl)piperazin-2-yl)acetonitrile] — 1.72 log units higher, 8.02
- C=CC(=O)N1CCN(c2nc(OC[C@@H]3CCCN3C)nn3c(C(=O)c4cccc5ccccc45)cnc23)C[C@@H]1CC#N [Compound A23, 2-((S)-4-(7-(1-naphthoyl)-2-(((S)-1-methylpyrrolidin-2-yl)methoxy)imidazo[2,1-f][1,2,4]triazin-4-yl)-1-acryloylpiperazin-2-yl)acetonitrile] — within 0.2 log units, 6.31
- C=CC(=O)N1CCN(c2nc(OC[C@@H]3C[C@@H](F)CN3C)nc3c(Cc4cc(O)cc5ccccc45)cn(C)c23)C[C@@H]1CC#N [Compound B3, 2-((S)-1-acryloyl-4-(2-(((2S,4R)-4-fluoro-1-methylpyrrolidin-2-yl)methoxy)-7-((3-hydroxynaphthalen-1-yl)methyl)-5-methyl-5H-pyrrolo[3,2-d]pyrimidin-4-yl)piperazin-2-yl)acetonitrile] — 1.39 log units higher, 7.69
- C=CC(=O)N1CCN(c2nc(OC[C@@H]3CCCN3C)nn3c(Cc4ccc(OC)c5ccccc45)cnc23)C[C@@H]1CC#N [Compound A10, 2-((S)-1-acryloyl-4-(7-((4-methoxynaphthalen-1-yl)methyl)-2-(((S)-1-methylpyrrolidin-2-yl)methoxy)imidazo[2,1-f][1,2,4]triazin-4-yl)piperazin-2-yl)acetonitrile] — 0.43 log units higher, 6.73
- C=CC(=O)N1CCN(c2nc(OC[C@@H]3CCCN3C)nn3c(Cc4cccc5c4CCO5)cnc23)C[C@@H]1CC#N [Compound A9, 2-((S)-1-acryloyl-4-(7-((2,3-dihydrobenzofuran-4-yl)methyl)-2-(((S)-1-methylpyrrolidin-2-yl)methoxy)imidazo[2,1-f][1,2,4]triazin-4-yl)piperazin-2-yl)acetonitrile] — 0.33 log units lower, 5.97
- C=CC(=O)N1CCN(c2nc(OC[C@@H]3CCCN3C)nn3c(Cc4cccc5c4OCC5)cnc23)C[C@@H]1CC#N [Compound A13, 2-((S)-1-acryloyl-4-(7-((2,3-dihydrobenzofuran-7-yl)methyl)-2-(((S)-1-methylpyrrolidin-2-yl)methoxy)imidazo[2,1-f][1,2,4]triazin-4-yl)piperazin-2-yl)acetonitrile] — 0.70 log units higher, 7.00
- C=CC(=O)N1CCN(c2nc(OC[C@@H]3CCCN3C)nn3c(Cc4cccc5cccc(Cl)c45)cnc23)C[C@@H]1CC#N [Compound A6, 2-((S)-1-acryloyl-4-(7-((8-chloronaphthalen-1-yl)methyl)-2-(((S)-1-methylpyrrolidin-2-yl)methoxy)imidazo[2,1-f][1,2,4]triazin-4-yl)piperazin-2-yl)acetonitrile] — 0.70 log units higher, 7.00
- C=CC(=O)N1CCN(c2nc(OC[C@@H]3CCCN3C)nn3c(Cc4ccccc4C(F)(F)F)cnc23)C[C@@H]1CC#N [Compound A18, 2-((S)-1-acryloyl-4-(2-(((S)-1-methylpyrrolidin-2-yl)methoxy)-7-(2-(trifluoromethyl)benzyl)imidazo[2,1-f][1,2,4]triazin-4-yl)piperazin-2-yl)acetonitrile] — 0.33 log units higher, 6.63
- C=CC(=O)N1CCN(c2nc(OC[C@@H]3CCCN3C)nc3c(Cc4c(C(F)(F)F)ccc5[nH]ncc45)c[nH]c23)C[C@@H]1CC#N [Compound B5, 2-((S)-1-acryloyl-4-(2-(((S)-1-methylpyrrolidin-2-yl)methoxy)-7-((5-(trifluoromethyl)-1H-indazol-4-yl)methyl)-5H-pyrrolo[3,2-d]pyrimidin-4-yl)piperazin-2-yl)acetonitrile] — 0.89 log units higher, 7.19
- C=CC(=O)N1CCN(c2nc(OC[C@@H]3CCCN3C)nn3c(Cc4ccccc4Cl)cnc23)C[C@@H]1CC#N [Compound A12, 2-((S)-1-acryloyl-4-(7-(2-chlorobenzyl)-2-(((S)-1-methylpyrrolidin-2-yl)methoxy)imidazo[2,1-f][1,2,4]triazin-4-yl)piperazin-2-yl)acetonitrile] — 0.36 log units higher, 6.66
- C=CC(=O)N1CCN(c2nc(OC[C@@H]3CCCN3C)nn3c(Cc4c(O)ccc5ccccc45)cnc23)C[C@@H]1CC#N [Compound A21, 2-((S)-1-acryloyl-4-(7-((2-hydroxynaphthalen-1-yl)methyl)-2-(((S)-1-methylpyrrolidin-2-yl)methoxy)imidazo[2,1-f][1,2,4]triazin-4-yl)piperazin-2-yl)acetonitrile] — 1.38 log units higher, 7.68
- C=CC(=O)N1CCN(c2nc(OC[C@@H]3CCCN3C)nn3c(C4CCc5ccccc54)cnc23)C[C@@H]1CC#N (stereo partly drawn) [Compound A22, 2-((2S)-1-acryloyl-4-(7-(2,3-dihydro-1H-inden-1-yl)-2-(((S)-1-methylpyrrolidin-2-yl)methoxy)imidazo[2,1-f][1,2,4]triazin-4-yl)piperazin-2-yl)acetonitrile] — 0.40 log units higher, 6.70

Same assay, conditions: same assay; the cell prints uM although the column head says nmol

For `C=CC(=O)N1CCN(c2nc(OC[C@@H]3CCCN3C)nn3c(Cc4cccc5[nH]ncc45)cnc23)C[C@@H]1CC(N)=O` [Compound A16, 2-((S)-4-(7-((1H-indazol-4-yl)methyl)-2-(((S)-1-methylpyrrolidin-2-yl)methoxy)imidazo[2,1-f][1,2,4]triazin-4-yl)-1-acryloylpiperazin-2-yl)acetamide], the IC50 was > 10 µM.
